Results as given in ChEMBL document CHEMBL3885861, “Open TG-GATES”.

Organism: Rattus norvegicus
Assay: Open TG-GATES - Regimen: Single
Format: toxicity, organism-based, Sprague-Dawley
Design: regimen Single, gender Male, age 6 weeks
Conditions: in vivo, po, 0 mg/kg, route gavage, dose level Control; for APTT / Bas / Eos / Fbg / Hb / Ht / Lym / MCH / MCHC / MCV / Mono / Neu / PT / RBC / Ret / WBC / Plat: tissue Blood; for KIDNEY_L / KIDNEY_R / KIDNEY_TOTAL: tissue Kidney; for LIVER: tissue Liver

## C[C@H](CS)C(=O)N1CCC[C@H]1C(=O)O [CAPTOPRIL]
3 h
  TERMINAL_BW: 220.9 g
  APTT: 16.4 s
  Bas: 0%
  Eos: 1.2%
  Fbg: 204.8 mg/dL
  Hb: 13.1 g/dL
  Ht: 39.7%
  Lym: 79.2%
  MCH: 21.4 pg
  MCHC: 33.1%
  MCV: 64.5 fL
  Mono: 6%
  Neu: 14%
  PT: 11.7 s
  RBC: 615.2 x10_4/ul
  Ret: 7.5%
  WBC: 110.3 x10_2/uL
  KIDNEY_L: 0.9 g
  KIDNEY_R: 1 g
  KIDNEY_TOTAL: 1.9 g
3 h, tissue Plasma
  ALP: 902.4 IU/L
  ALT: 34 IU/L
  AST: 65.2 IU/L
  BUN: 13 mg/dL
  CRE: 0.5 mg/dL
  DBIL: 0.018 mg/dL
  GLC: 193.6 mg/dL
  IP: 9.9 mg/dL
  K: 5.1 meq/L
  LDH: 84.6 IU/L
  Na: 137.6 meq/L
  PL: 127.6 mg/dL
  RALB: 3.7 g/dL
  TBIL: 0.4 mg/dL
  TC: 70.8 mg/dL
  TG: 42.6 mg/dL
  TP: 5.4 g/dL
  gamma-GTP: 1.6 IU/L
6 h
  TERMINAL_BW: 220.4 g
  APTT: 15.7 s
  Bas: 0%
  Eos: 1.2%
  Hb: 13.5 g/dL
  Ht: 41.1%
  Lym: 76.8%
  MCH: 21.1 pg
  MCHC: 32.9%
  MCV: 64.3 fL
  Mono: 6.2%
  Neu: 16.2%
  PT: 11.8 s
  Plat: 118.9 x10_4/uL
  RBC: 639.6 x10_4/ul
  Ret: 7.5%
  WBC: 124.4 x10_2/uL
  KIDNEY_L: 1 g
  KIDNEY_R: 1 g
  KIDNEY_TOTAL: 2 g
6 h, tissue Plasma
  ALP: 725.4 IU/L
  ALT: 31.2 IU/L
  AST: 58.4 IU/L
  BUN: 11.8 mg/dL
  CRE: 0.6 mg/dL
  DBIL: 0.012 mg/dL
  GLC: 198.2 mg/dL
  K: 4.7 meq/L
  LDH: 75.6 IU/L
  Na: 139 meq/L
  PL: 135.6 mg/dL
  RALB: 3.6 g/dL
  TBIL: 0.3 mg/dL
  TC: 76.8 mg/dL
  TG: 60 mg/dL
  TP: 5.3 g/dL
  gamma-GTP: 1.4 IU/L
9 h
  TERMINAL_BW: 222.4 g
  APTT: 16.3 s
  Bas: 0%
  Eos: 1%
  Fbg: 207.2 mg/dL
  Hb: 12.9 g/dL
  Ht: 39.1%
  Lym: 79.8%
  MCH: 21.2 pg
  MCHC: 33%
  MCV: 64.5 fL
  Mono: 5.4%
  Neu: 14%
  PT: 12.2 s
  Plat: 118.8 x10_4/uL
  RBC: 607 x10_4/ul
  Ret: 7.9%
  WBC: 89.1 x10_2/uL
  KIDNEY_L: 1 g
  KIDNEY_R: 1 g
  KIDNEY_TOTAL: 2.1 g
  LIVER: 9.6 g
9 h, tissue Plasma
  ALP: 868 IU/L
  ALT: 33.4 IU/L
  AST: 60.2 IU/L
  BUN: 13.4 mg/dL
  CRE: 0.4 mg/dL
  DBIL: 0.078 mg/dL
  GLC: 200 mg/dL
  IP: 10 mg/dL
  K: 4.9 meq/L
  LDH: 53.8 IU/L
  Na: 137.8 meq/L
  PL: 132.2 mg/dL
  RALB: 3.6 g/dL
  TBIL: 0.4 mg/dL
  TC: 68.8 mg/dL
  TG: 64.8 mg/dL
  TP: 5.4 g/dL
  gamma-GTP: 2 IU/L
24 h
  TERMINAL_BW: 235.3 g
  APTT: 15.7 s
  Bas: 0%
  Eos: 1.4%
  Hb: 13.4 g/dL
  Ht: 40.3%
  Lym: 77.6%
  MCH: 21.7 pg
  MCHC: 33.1%
  MCV: 65.6 fL
  Mono: 5.8%
  Neu: 15.4%
  PT: 11.4 s
  Plat: 115.5 x10_4/uL
  RBC: 614.6 x10_4/ul
  Ret: 9.1%
  WBC: 114 x10_2/uL
  KIDNEY_L: 1 g
  KIDNEY_R: 1 g
  KIDNEY_TOTAL: 2 g
  LIVER: 11.7 g
24 h, tissue Plasma
  ALP: 943.6 IU/L
  ALT: 39 IU/L
  AST: 65.2 IU/L
  BUN: 18.2 mg/dL
  CRE: 0.6 mg/dL
  Ca: 11 mg/dL
  DBIL: 0.082 mg/dL
  GLC: 199.8 mg/dL
  IP: 8.5 mg/dL
  K: 4.6 meq/L
  Na: 140.2 meq/L
  PL: 146 mg/dL
  RALB: 3.9 g/dL
  TBIL: 0.3 mg/dL
  TC: 76.8 mg/dL
  TG: 95.8 mg/dL
  TP: 5.7 g/dL
